Source: patent US5637570A, “Disubstituted and trisubstituted derivatives of 2,3:4,6-di-O-isopropylidene-α-L-xylo-2-hexulofuranosonic acid having anti-cancer, anti-inflammatory and anti-proliferative activity” (Chemora Pharmochem, priority 1995, dated 1997)
Like-named read-outs stand apart in the source and are kept apart here.

Assays:
[1] = system: T cells (splenic T cell proliferation, co-cultured spleen cells from two strains of mice); assay: Mixed lymphocyte response (MLR); type: cell-based; conditions: Mus musculus, Anti-inflammatory/Anti-proliferative Activity
Text: i Mixed lymphocyte response (MLR).
(§1) The MLR assay measures the effects of a study compound on the activation and antigen presentation of T-lymphocytes, therefore determining immunomodulatory properties. The mouse spleen cell mitogen-induced blastogenesis and the BUD-8 human fibroblast proliferation assays measure the effects of the compounds of the present invention on cellular proliferation of cells involved in the pathogenesis of autoimmune diseases. These two assays are appropriate as screens to ascertain anti-inflammatory and/or autoimmune diseases.
The MLR is a classical assay used to measure T cell function by studying the proliferation response of T cells which are activated in vitro by genetically disparate stimulator cells. This is accomplished by co-culturing spleen cells from two different strains of mice. Splenic T cell proliferation occurs as a result of cellular activation signals generated by the ongoing cellular interactions.
(§2) The detailed experimental procedure for the above-mentioned assays is described in detail in U.S. Pat. Nos. 5,360,790 and 5,367,062 incorporated herein by reference.

[2] = system: mouse spleen cell (T-lymphocyte); assay: Concanavalin A (CON-A) assay, mouse spleen cell mitogen induced blastogenesis; type: cell-based; conditions: Anti-inflammatory/Anti-proliferative Activity
Text: iii Concanavalin A assay (the mouse spleen cell mitogen induced blastogenesis).
as §1
It is known that the induction and maintenance of most inflammatory diseases are typically due to the unrestricted activity of T-lymphocytes. Therefore, it is advantageous to identify compounds which are modulators of T-lymphocyte activity for eventual use in the regulation of inflammatory diseases, including acquired immune deficiency syndrome, psoriasis, systemic lupus, erythromatosus, and rheumatoid arthritis.
as §2

[3] = system: BUD-8 human fibroblast; assay: BUD-8 human cell line fibroblast proliferation assay (FIB.); type: cell-based; conditions: Anti-inflammatory/Anti-proliferative Activity
Text: ii BUD-8 human cell line fibroblast proliferation assay.
as §1
The skin cell fibroblast line, BUD-8, was originally derived from the normal skin of a person and can now be obtained from the American Type Culture Collection, Rockville, Md.
as §2

[4] = system: human tumor cell lines (approximately 60); assay: NCI in vitro human tumor cell line screen (SRB), mean graph midpoints over all cell lines; type: cell-based; conditions: for CC50 / GI50 / IC (TGI): Homo sapiens, average of all cell lines, 48 h; for CC50: 50% cell death (-50% growth), read-out: log10 LC50 mean graph midpoint (converted); for IC (TGI): total cell growth inhibition (0% growth), read-out: log10 TGI mean graph midpoint (converted); for in vitro activity in words: various in vitro cell lines, IC50, average GI50, mean graph pattern
Procedure: In performing in vitro human tumor cell line assay, a total of approximately 60 human tumor cell lines derived from ten cancer types (leukemia, non-small cell lung cancer, small cell lung cancer, colon cancer, CNS cancer, melanoma, ovarian cancer, renal cancer, breast cancer and prostate cancer) were used in this assay. Compounds were tested at different concentrations against every cell line. All lines are inoculated into a series of standard 96-well microtiter plates on day 0, in the majority of cases at 20,000 cells/well, and then pre-incubated in the absence of testing agent for 24 hours. A testing agent was then added in five 10-fold dilutions and incubated for a further period of 48 hours. Following this, the cells are fixed in situ, washed, and dried. Sulforhodamine B (SRB, protein binding dye) is added, followed by further washing and drying of the stained adherent cell mass. The bound stain is solubilized and measured spectrophotometrically on an automatic plate reader.
For each compound, dose response curves for each cell line were measured with five different drug concentrations, and the concentration causing 50% cell growth inhibition (GI50), total cell growth inhibition (TGI, 0% growth), and 50% cell death (LC50, -50% growth) compared with the control was calculated. […] In these graphs, the mean logarithmic value of GI50 in all cell lines for each tested compound is used as the midpoint of that bar graph.

[5] = system: P388 Murine Leukemia; assay: P388 Murine Leukemia in vivo
Procedure: Two of the compounds of the present invention (Ic and Im) were also tested against P388 Murine Leukemia.

[6] = system: SK-MEL-28 Melanoma Xenografts; assay: Early Stage SK-MEL-28 Melanoma Xenografts; conditions: for Drug Deaths: of 6 mice; for Opt. % T/C: >40 considered inactive
Procedure: (§3) In this in vivo model Murine or human tumor fragments (30 mg) are implanted subcutaneously into the axillary region of pathogen-free immunocompetent or immunodefficient mice, respectively, on experimental day 0. Test agent treatment is initiated either on the day which is historically associated with the start of tumor growth, or when the tumor is palpable. Tumor size and body weights are obtained approximately two times per week. Tumor weights are calculated from caliper measurements of tumor dimensions in mm using the formula for a prolate ellipsoid:
(§4) (L×W^2)/2; where L is the longer of the 2 measurements
(§5) Generally, tumor size is monitored until an upper weight limit of 500 mg is attained.

[7] = system: COLO 205 Colon Tumor Xenografts; assay: Early Stage SC COLO 205 Colon Tumor Xenografts; conditions: for Drug Deaths: of 6 mice; for Opt. % T/C: >40 considered inactive
Procedure: as §3, §4, §5

[8] = system: UACC-62 Melanoma Xenografts; assay: Early Stage Subcutaneous Tumor Model UACC-62 Melanoma Xenografts; conditions: for Drug Deaths: of 6 mice; for Opt. % T/C: >40 considered inactive
Procedure: as §3, §4, §5

[9] = 50% cell growth inhibition, read-out: GI50 (average)
[10] = log10 of molar concentration, read-out: log10 I50 (log10 GI50 mean graph midpoint) (converted)
[11] = Ic 60, 40 and 27 mg/kg/dose, Im 120, 80 and 54 mg/kg/dose
[12] = 200 mg/kg/dose IP QD × 5, day 3
[13] = 200 mg/kg/dose IP Q4D × 3, day 7
[14] = 134 mg/kg/dose IP Q4D × 3, day 6
[15] = 200 mg/kg/dose IP Q4D × 3, day 6

SMILES: CCCCCCCCCCCCOC[C@@]12O[C@@H](CN3CCCC3)[C@@H](O)[C@@H]1OC(C)(C)O2 [Ia, 2,3-O-Isopropylidene-6-deoxy-6-(1-pyrrolidinyl)-1-O-dodecyl-α-L-xylo-2-hexulofuranose]
- IC50 [1]: < 1 µM
- IC50 [2]: < 1 µM
- IC50 [3]: < 3 µM
- CC50 [4]: 13.2 µM
- GI50 [4, 9]: 4.21 µM
- GI50 [4, 10]: 0.204 µM
- IC (TGI) [4]: 4.37 µM

SMILES: CCCCCCCCCCCCOC[C@@]12O[C@@H](CN3CCOCC3)[C@@H](O)[C@@H]1OC(C)(C)O2 [Ic, 2,3-O-Isopropylidene-6-deoxy-6-(1-morpholinyl)-1-O-dodecyl-α-L-xylo-2-hexulofuranose]
- IC50 [1]: < 1 µM
- IC50 [2]: 10.3 µM
- IC50 [3]: 14.8 µM
- CC50 [4]: 56.2 µM
- GI50 [4, 9]: 31.6 µM
- GI50 [4, 10]: 14.5 µM
- IC (TGI) [4]: 29.5 µM
- in vitro activity in words [4]: significant activity in various in vitro cell lines
- antitumor activity [5, 11]: only slight antitumor activity
- toxicity [5, 11]: toxic at the higher dose levels
- maximally tolerated dose ([5]; mouse, in vivo): a maximally tolerated dose was not achieved
- Drug Deaths ([6]; 90 mg/kg/dose IP QD × 5, day 3): 0
- Drug Deaths ([6]; 134 mg/kg/dose IP QD × 5, day 3): 1
- Opt. % T/C ([6]; 134 mg/kg/dose IP QD × 5, day 3, optimum on day 9): 36%
- Opt. % T/C [6, 12]: Toxic
- Drug Deaths [6, 12]: 6
- Opt. % T/C ([6]; Ic 90 mg/kg/dose IP QD × 5, day 3, optimum on day 16): 35%
- Drug Deaths ([7]; 90 mg/kg/dose IP Q4D × 3, day 7): 0
- Drug Deaths ([7]; 134 mg/kg/dose IP Q4D × 3, day 7): 1
- Opt. % T/C ([7]; 134 mg/kg/dose IP Q4D × 3, day 7, optimum on day 29): 40%
- Opt. % T/C [7, 13]: Toxic
- Drug Deaths [7, 13]: 6
- Opt. % T/C ([7]; Ic 90 mg/kg/dose IP Q4D × 3, day 7, optimum on day 36): 43%
- Drug Deaths ([8]; 90 mg/kg/dose IP Q4D × 3, day 6): 0
- Opt. % T/C ([8]; 90 mg/kg/dose IP Q4D × 3, day 6, optimum on day 16): 39%
- Opt. % T/C [8, 14]: Toxic
- Drug Deaths [8, 14]: 6
- Opt. % T/C [8, 15]: Toxic
- Drug Deaths [8, 15]: 6

SMILES: CCCCCCCCCCCCOC[C@@]12O[C@@H](CN3CCCCCC3)[C@@H](O)[C@@H]1OC(C)(C)O2 [Id, 2,3-O-Isopropylidene-6-deoxy-6-(1-hexamethyleneimino)-1-O-dodecyl-α-L-xylo-2-hexulofuranose]
- IC50 [1]: < 1 µM
- IC50 [2]: < 3 µM
- IC50 [3]: < 3 µM
- CC50 [4]: 10.7 µM
- GI50 [4, 9]: 3.87 µM
- GI50 [4, 10]: 1.82 µM
- IC (TGI) [4]: 4.57 µM

SMILES: CCCCCCCCCCCCOC[C@@]12O[C@@H](CNCCN3CCOCC3)[C@@H](O)[C@@H]1OC(C)(C)O2 [If, 2,3-O-Isopropylidene-6-deoxy-6-aminoethylmorpholinyl-1-O-dodecyl-α-L-xylo-2-hexulofuranose]
- IC50 [1]: < 1 µM
- IC50 [2]: < 1 µM
- IC50 [3]: < 1 µM
- CC50 [4]: 11 µM
- GI50 [4, 9]: 4.68 µM
- GI50 [4, 10]: 2.34 µM
- IC (TGI) [4]: 5.13 µM

SMILES: CCCCCCCCCCCCOC[C@@]12O[C@@H](CNCCN3CCCCC3)[C@@H](O)[C@@H]1OC(C)(C)O2 [Ig, 2,3-O-Isopropylidene-6-deoxy-6-aminoethylpiperidinyl-1-O-dodecyl-α-L-xylo-2-hexulofuranose]
- IC50 [1]: < 1 µM
- IC50 [2]: < 3 µM
- IC50 [3]: < 3 µM
- CC50 [4]: 20 µM
- GI50 [4, 9]: 6.8 µM
- GI50 [4, 10]: 3.39 µM
- IC (TGI) [4]: 7.76 µM

SMILES: CCCCCCCCCCCCOC[C@@]12O[C@@H](C)[C@@H](OCCN3CCCC3)[C@@H]1OC(C)(C)O2 [Il, 2,3-O-Isopropylidene-6-deoxy-1-O-dodecyl-4-O-ethylpyrrolidinyl-α-L-xylo-2-hexulofuranose]
- IC50 [1]: < 1 µM
- IC50 [2]: < 1 µM
- IC50 [3]: < 1 µM
- CC50 [4]: 28.8 µM
- GI50 [4, 9]: 8.68 µM
- GI50 [4, 10]: 4.07 µM
- IC (TGI) [4]: 10.5 µM
- in vitro activity in words [4]: significant activity

SMILES: CCCCCCCCCCCCOC[C@@]12O[C@@H](C)[C@@H](OCCN3CCOCC3)[C@@H]1OC(C)(C)O2 [In, 2,3-O-Isopropylidene-6-deoxy-1-O-dodecyl-4-O-ethylmorpholinyl-α-L-xylo-2-hexulofuranose]
- IC50 [1]: 3.8 µM
- IC50 [2]: 10.5 µM
- IC50 [3]: 12.9 µM
- CC50 [4]: 91.2 µM
- GI50 [4, 9]: 74.9 µM
- GI50 [4, 10]: 36.3 µM
- IC (TGI) [4]: 72.4 µM

SMILES: CCCCCCCCCCCCOC[C@@]12O[C@@H](CN3CCCCCC3)[C@@H](OCCN3CCCC3)[C@@H]1OC(C)(C)O2 [Ir, 2,3-O-Isopropylidene-6-deoxy-1-O-dodecyl-4-O-ethylpyrrolidinyl-6-hexamethyleneimino-α-L-xylo-2-hexulofuranose]
- IC50 [1]: < 1 µM
- IC50 [2]: < 1 µM
- IC50 [3]: < 1 µM
- CC50 [4]: 21.4 µM
- GI50 [4, 9]: 3.22 µM
- GI50 [4, 10]: 1.78 µM
- IC (TGI) [4]: 8.13 µM

SMILES: CCCCCCCCCCCCOC[C@@]12O[C@@H](CN3CCCCCC3)[C@@H](OCCN3CCCCC3)[C@@H]1OC(C)(C)O2 [It, 2,3-O-Isopropylidene-6-deoxy-1-O-dodecyl-4-O-ethylpiperidinyl-6-hexamethyleneimino-α-L-xylo-2-hexulofuranose]
- IC50 [1]: < 1 µM
- IC50 [2]: < 1 µM
- IC50 [3]: < 1 µM
- CC50 [4]: 36.3 µM
- GI50 [4, 9]: 2.38 µM
- GI50 [4, 10]: 1.35 µM
- IC (TGI) [4]: 7.76 µM

SMILES: CCCCCCCCCCCCOC[C@@]12O[C@@H](CN3CCCCCC3)[C@@H](OCCCN3CCCCC3)[C@@H]1OC(C)(C)O2 [Iu, 2,3-O-Isopropylidene-6-deoxy-1-O-dodecyl-4-O-propylpiperidinyl-6-hexamethyleneimino-α-L-xylo-2-hexulofuranose]
- IC50 [1]: < 1 µM
- IC50 [2]: < 1 µM
- IC50 [3]: < 1 µM
- CC50 [4]: 28.8 µM
- GI50 [4, 9]: 0.86 µM
- GI50 [4, 10]: 0.501 µM
- IC (TGI) [4]: 3.72 µM

SMILES: CCCCCCCCCCCCOC[C@@]12O[C@@H](CN3CCCCCC3)[C@@H](OCCN3CCOCC3)[C@@H]1OC(C)(C)O2 [Iv, 2,3-O-Isopropylidene-6-deoxy-1-O-dodecyl-4-O-ethylmorpholinyl-6-hexamethyleneimino-α-L-xylo-2-hexulofuranose]
- IC50 [1]: < 1 µM
- IC50 [2]: < 1 µM
- IC50 [3]: < 1 µM
- CC50 [4]: 44.7 µM
- GI50 [4, 9]: 3.2 µM
- GI50 [4, 10]: 1.82 µM
- IC (TGI) [4]: 11.5 µM

SMILES: CCCCCCCCCCCCOC[C@@]12O[C@@H](CN3CCCCCC3)[C@@H](OCCCc3ccccc3)[C@@H]1OC(C)(C)O2 [Iw, 2,3-O-Isopropylidene-6-deoxy-1-O-dodecyl-4-O-phenylpropyl-6-hexamethyleneimino-α-L-xylo-2-hexulofuranose]
- IC50 [1]: < 1 µM
- IC50 [2]: < 1 µM
- IC50 [3]: < 1 µM
- CC50 [4]: 16.6 µM
- GI50 [4, 9]: 4.18 µM
- GI50 [4, 10]: 2.45 µM
- IC (TGI) [4]: 10 µM
